Values after ≈ are worked out from the molar mass of the structure shown. Each block holds one compound with its values, some of them ahead of it.
Columns and labels:
[1] = Lipophilicity, log D of the compound at pH 7.4 by chromatographic method; conditions: buffer
[2] = Intrinsic clearance in rat hepatocytes assessed as parent compound disappearance at 1 uM per 10^6 cells; format: ADME, cell-based, Hepatocyte; conditions: read-out: CLH
[3] = target: T1, Diacylglycerol O-acyltransferase 1 (Homo sapiens, UniProt O75907)
T1 sequence (O75907 whole entry): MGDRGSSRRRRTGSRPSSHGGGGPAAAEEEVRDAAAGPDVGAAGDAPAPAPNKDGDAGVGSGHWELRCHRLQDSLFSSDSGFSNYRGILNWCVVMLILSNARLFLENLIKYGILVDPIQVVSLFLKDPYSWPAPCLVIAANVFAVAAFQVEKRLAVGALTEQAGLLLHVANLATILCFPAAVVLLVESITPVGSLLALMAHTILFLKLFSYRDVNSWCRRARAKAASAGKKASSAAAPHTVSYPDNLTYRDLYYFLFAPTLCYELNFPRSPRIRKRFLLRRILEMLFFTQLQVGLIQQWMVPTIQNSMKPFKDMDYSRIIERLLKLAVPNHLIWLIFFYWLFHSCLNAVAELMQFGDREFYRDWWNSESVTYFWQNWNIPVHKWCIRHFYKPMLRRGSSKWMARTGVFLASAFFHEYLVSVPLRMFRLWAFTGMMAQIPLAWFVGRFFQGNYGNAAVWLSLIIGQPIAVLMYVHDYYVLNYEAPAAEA
Description: (§1) Inhibition of human recombinant DGAT1 expressed in Sf9 cells by liquid scintillography

[4] = Solubility in 0.1 M phosphate buffer at pH 7.4 at 25 degC incubated for 24 hrs
[5] = Fraction unbound in human plasma at 37 degC by LC-UV/MS method based equilibrium dialysis method
[6] = Half life in Han-Wistar rat at 2.54 to 5.4 uM/kg, po; format: ADME, organism-based; conditions: in vivo
[7] = Apparent permeability from apical to basolateral side in MDCK cells at pH 7.4; conditions: dog
[8] = target: T2, Sterol O-acyltransferase 1 (Homo sapiens, UniProt P35610)
T2 sequence (P35610 whole entry): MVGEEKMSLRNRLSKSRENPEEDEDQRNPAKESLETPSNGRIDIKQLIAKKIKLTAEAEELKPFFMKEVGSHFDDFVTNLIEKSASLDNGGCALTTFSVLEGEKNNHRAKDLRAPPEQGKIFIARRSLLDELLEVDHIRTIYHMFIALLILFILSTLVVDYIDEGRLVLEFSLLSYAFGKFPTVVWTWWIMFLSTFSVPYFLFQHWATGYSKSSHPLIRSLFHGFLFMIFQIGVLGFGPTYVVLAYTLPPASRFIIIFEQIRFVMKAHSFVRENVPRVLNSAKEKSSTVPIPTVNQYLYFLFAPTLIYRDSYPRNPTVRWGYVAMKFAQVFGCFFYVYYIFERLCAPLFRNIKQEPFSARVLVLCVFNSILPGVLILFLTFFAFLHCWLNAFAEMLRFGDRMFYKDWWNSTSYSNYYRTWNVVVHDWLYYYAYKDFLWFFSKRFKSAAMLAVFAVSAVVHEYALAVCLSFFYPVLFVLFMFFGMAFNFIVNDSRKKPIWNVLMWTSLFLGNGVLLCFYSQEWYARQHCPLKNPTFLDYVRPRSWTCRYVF
Description: Inhibition of human ACAT1 by liquid scintillography

[9] = Stability in pH 7.8 buffer assessed as acyl migration incubated for 45 mins; format: physicochemical; conditions: pH 7.8, 0.75 h
[10] = Stability in pH 7.8 buffer assessed as compound degradation incubated for 45 mins; format: physicochemical; conditions: pH 7.8, 0.75 h
[11] = target: T1, Diacylglycerol O-acyltransferase 1; conditions: sf9
Description: as §1

[12] = Apparent permeability from apical to basolateral side in human Caco2 cells at pH 7.4; format: ADME, cell-based; conditions: Caco-2, pH 7.4
[13] = Oral bioavailability in rat; conditions: in vivo
[14] = Octanol/water partition coefficient, log D of the compound at pH 7.4; format: physicochemical

SMILES: Cc1nc(C)c(-c2ccc(C34CCC(C(=O)O)(CC3)CC4)cc2)nc1C(N)=O
hepatocyte CLint at 1 µM [2]: < 2 µL/min/1e6 cells | IC50 [3]: 0.08 µM | solubility at 24 h [4]: 113 µM (≈ 42.9 µg/mL) | fraction unbound [5]: 0.006 | chromatographic logD [1]: 1.6 | half-life [6]: 7.3 h | Papp A→B [7]: 13 ×10⁻⁶ cm/s | IC50 [8]: 15 µM

SMILES: NCc1cncc(-c2ccc([C@H]3CC[C@H](CC(=O)O)CC3)cc2)n1
IC50 [11]: Not Active | chromatographic logD [1]: < 0

SMILES: N#C/N=C(\N)c1cncc(-c2ccc([C@H]3CC[C@H](CC(=O)O)CC3)cc2)n1
IC50 [11]: Not Active | chromatographic logD [1]: 1.2

SMILES: Cc1ncc(C(N)=S)nc1-c1ccc([C@H]2CC[C@H](CC(=O)O)CC2)cc1
chromatographic logD [1]: 1.8

SMILES: NC(=O)c1cccc(-c2ccc([C@H]3CC[C@H](CC(=O)O)CC3)cc2)n1
chromatographic logD [1]: 0.8

SMILES: CCc1nc(C)c(-c2ccc([C@H]3CC[C@H](CC(=O)O)CC3)cc2)nc1C(N)=O
chromatographic logD [1]: 1.5

SMILES: Cc1nc(C(C)C)c(C(N)=O)nc1-c1ccc([C@H]2CC[C@H](CC(=O)O)CC2)cc1
IC50 [3]: > 10 µM | chromatographic logD [1]: 2.6

SMILES: NC(=O)c1nc(-c2ccc([C@H]3CC[C@H](CC(=O)O)CC3)cc2)cnc1N
IC50 [3]: > 10 µM | chromatographic logD [1]: 0.5

SMILES: CCc1nc(C)c(C(N)=O)nc1-c1ccc([C@H]2CC[C@H](CC(=O)O)CC2)cc1
IC50 [3]: > 9.1 µM | chromatographic logD [1]: 1.7

SMILES: Cc1nc(C(C)C)c(-c2ccc([C@H]3CC[C@H](CC(=O)O)CC3)cc2)nc1C(N)=O
IC50 [3]: > 10 µM | chromatographic logD [1]: 2.6

SMILES: Cc1nc(C)c(-c2ccc([C@H]3CC[C@H](CC(N)=O)CC3)cc2)nc1C(N)=O
hepatocyte CLint at 1 µM [2]: 77 µL/min/1e6 cells | fraction unbound [5]: 0.13 | chromatographic logD [1]: 1.7 | Papp A→B [7]: 18 ×10⁻⁶ cm/s

SMILES: NC(=O)C[C@H]1CC[C@H](c2ccc(-c3cncc(C(N)=O)n3)cc2)CC1
IC50 [3]: 1.9 µM | solubility at 24 h [4]: < 1 µM | Papp A→B [12]: 13 ×10⁻⁶ cm/s | chromatographic logD [1]: 0.9

SMILES: CC(C)(NC(=O)C[C@H]1CC[C@H](c2ccc(-c3cncc(C(N)=O)n3)cc2)CC1)C(=O)O
hepatocyte CLint at 1 µM [2]: < 2 µL/min/1e6 cells | IC50 [3]: 1.1 µM | solubility at 24 h [4]: > 100 µM | chromatographic logD [1]: < 0.1

SMILES: Cc1nc(C)c(-c2ccc([C@H]3CC[C@H](Cc4nnn[nH]4)CC3)cc2)nc1C(N)=O
hepatocyte CLint at 1 µM [2]: < 2 µL/min/1e6 cells | fraction unbound [5]: 0.009 | half-life [6]: 9 h

SMILES: Cc1nc(C)c(-c2ccc([C@H]3CC[C@H](CCC(=O)O)CC3)cc2)nc1C(N)=O
logD [14]: 1.6

SMILES: Cc1nc(C)c(-c2ccc([C@H]3CC[C@H](CC(=O)O)CC3)c(F)c2)nc1C(N)=O
chromatographic logD [1]: 1.3

SMILES: Cc1nc(C)c(-c2ccc([C@H]3CC[C@@H](CC(=O)O)CC3)cc2)nc1C(N)=O
IC50 [3]: 0.43 µM

SMILES: Cc1nc(C)c(-c2ccc([C@H]3CC[C@@H](CC(=O)O)CC3)c(F)c2)nc1C(N)=O
chromatographic logD [1]: 1.2

SMILES: Cc1nc(C)c(-c2ccc([C@H]3CC[C@@H](CC(=O)O)CC3)c(Cl)c2)nc1C(N)=O
chromatographic logD [1]: 1.5

SMILES: Cc1ncc(C(N)=O)nc1-c1ccc([C@H]2CC[C@H](CC(=O)O)CC2)cc1
hepatocyte CLint at 1 µM [2]: < 6 µL/min/1e6 cells | IC50 [3]: 0.31 µM | solubility at 24 h [4]: > 100 µM | Papp A→B [12]: 35 ×10⁻⁶ cm/s | chromatographic logD [1]: 0.3 | IC50 [8]: > 33 µM

Next, values leading:

chromatographic logD [1]: 2
SMILES: Cc1nc(C)c(-c2ccc3c(c2)CC[C@]32CC[C@@H](Cc3nnn[nH]3)CC2)nc1C(N)=O

chromatographic logD [1]: 1.4
SMILES: Cc1nc(C)c(-c2ccc3c(c2)CC[C@]32CC[C@@H](c3nnn[nH]3)CC2)nc1C(N)=O

chromatographic logD [1]: 1.3
SMILES: Cc1nc(C)c(-c2ccc(C34CCC(CC(=O)O)(CC3)CC4)cc2)nc1C(N)=O

Stability [9]: Stable | Stability [10]: Stable
SMILES: Cc1nc(C)c(-c2ccc([C@H]3CC[C@H](CC(=O)O[C@@H]4O[C@H](C(=O)O)[C@@H](O)[C@H](O)[C@H]4O)CC3)cc2)nc1C(N)=O

IC50 [11]: Not Active | chromatographic logD [1]: 0.9
SMILES: CNC(=O)c1cnc(C)c(-c2ccc([C@H]3CC[C@H](CC(=O)O)CC3)cc2)n1

IC50 [11]: Not Active | chromatographic logD [1]: 0.7
SMILES: Cc1ncc(C(=O)N(C)C)nc1-c1ccc([C@H]2CC[C@H](CC(=O)O)CC2)cc1

IC50 [11]: Not Active | chromatographic logD [1]: 2.7
SMILES: Cc1ncc(C(=O)NCc2ccccc2)nc1-c1ccc([C@H]2CC[C@H](CC(=O)O)CC2)cc1

IC50 [11]: Not Active | chromatographic logD [1]: 0.7
SMILES: Cc1ncc(C(=O)N2CCOCC2)nc1-c1ccc([C@H]2CC[C@H](CC(=O)O)CC2)cc1

IC50 [11]: Not Active | chromatographic logD [1]: < 0
SMILES: Cc1ncc(C(=O)O)nc1-c1ccc([C@H]2CC[C@H](CC(=O)O)CC2)cc1

IC50 [11]: Not Active
SMILES: Cc1nc(C)c(-c2ccc([C@H]3CC[C@H](CC(=O)O)CC3)cc2)nc1C(=O)O

IC50 [3]: > 33 µM | chromatographic logD [1]: < 0
SMILES: N=C(N)c1cncc(-c2ccc([C@H]3CC[C@H](CC(=O)O)CC3)cc2)n1

chromatographic logD [1]: 0
SMILES: NC(=O)c1cncc(-c2ccc([C@H]3CC[C@H](CC(=O)O)CC3)cc2)c1

chromatographic logD [1]: 1.3
SMILES: Cc1ccc(C(N)=O)nc1-c1ccc([C@H]2CC[C@H](CC(=O)O)CC2)cc1

chromatographic logD [1]: 1.4
SMILES: Cc1nc(C(F)F)c(C(N)=O)nc1-c1ccc([C@H]2CC[C@H](CC(=O)O)CC2)cc1

IC50 [3]: > 10 µM | chromatographic logD [1]: 2
SMILES: Cc1nc(-c2ccccc2)c(C(N)=O)nc1-c1ccc([C@H]2CC[C@H](CC(=O)O)CC2)cc1

IC50 [3]: > 10 µM | chromatographic logD [1]: 2.5
SMILES: Cc1nc(-c2ccccc2)c(-c2ccc([C@H]3CC[C@H](CC(=O)O)CC3)cc2)nc1C(N)=O

IC50 [3]: 0.69 µM | solubility at 24 h [4]: 4 µM (≈ 1.41 µg/mL) | Papp A→B [12]: 58 ×10⁻⁶ cm/s | chromatographic logD [1]: 3.1
SMILES: Cc1nc(C)c(-c2ccc([C@H]3CC[C@H](CCO)CC3)cc2)nc1C(N)=O

hepatocyte CLint at 1 µM [2]: 36 µL/min/1e6 cells | IC50 [3]: 1.2 µM | solubility at 24 h [4]: 3 µM (≈ 0.976 µg/mL) | Papp A→B [12]: 38 ×10⁻⁶ cm/s | fraction unbound [5]: 0.028 | chromatographic logD [1]: 2.3
SMILES: NC(=O)c1cncc(-c2ccc([C@H]3CC[C@H](CCO)CC3)cc2)n1

IC50 [3]: 0.11 µM | bioavailability [13]: 19% | solubility at 24 h [4]: 86 µM (≈ 38.9 µg/mL) | Papp A→B [12]: 0.71 ×10⁻⁶ cm/s | fraction unbound [5]: 0.078 | chromatographic logD [1]: 0.7
SMILES: Cc1nc(C)c(-c2ccc([C@H]3CC[C@H](CC(=O)NC(C)(C)C(=O)O)CC3)cc2)nc1C(N)=O

hepatocyte CLint at 1 µM [2]: 17 µL/min/1e6 cells | IC50 [3]: 0.1 µM | solubility at 24 h [4]: 100 µM (≈ 44.5 µg/mL) | Papp A→B [12]: 2 ×10⁻⁶ cm/s | chromatographic logD [1]: 0.9
SMILES: Cc1nc(C)c(-c2ccc([C@H]3CC[C@H](CC(=O)NS(C)(=O)=O)CC3)cc2)nc1C(N)=O

chromatographic logD [1]: 1.8
SMILES: Cc1nc(C)c(-c2ccc([C@H]3CC[C@H](CC(=O)O)CC3)c(Cl)c2)nc1C(N)=O

hepatocyte CLint at 1 µM [2]: < 2 µL/min/1e6 cells | IC50 [3]: 0.03 µM | solubility at 24 h [4]: 562 µM (≈ 221 µg/mL) | fraction unbound [5]: 0.013 | half-life [6]: 7.5 h | Papp A→B [7]: 12 ×10⁻⁶ cm/s | IC50 [8]: 2.4 µM
SMILES: Cc1nc(C)c(-c2ccc3c(c2)CC[C@]32CC[C@@H](CC(=O)O)CC2)nc1C(N)=O

hepatocyte CLint at 1 µM [2]: 72 µL/min/1e6 cells | solubility at 24 h [4]: 1200 µM (≈ 407 µg/mL) | chromatographic logD [1]: 0.22
SMILES: Cc1ncc(C(N)=O)nc1-c1ccc([C@H]2CC[C@H](C(=O)O)CC2)cc1

IC50 [3]: 1.9 µM | bioavailability [13]: 62% | Papp A→B [12]: 29 ×10⁻⁶ cm/s | fraction unbound [5]: 0.035 | chromatographic logD [1]: < 0.1 | IC50 [8]: > 100 µM
SMILES: NC(=O)c1cncc(-c2ccc([C@H]3CC[C@H](CC(=O)O)CC3)cc2)n1

logD [14]: 1
SMILES: Cc1ncc(-c2ccc([C@H]3CC[C@H](CC(=O)O)CC3)cc2)nc1C(N)=O
